Measurements as given in patent US9895344B2, “Treating various disorders with 7,8-dihydroxyflavone and derivatives thereof” (EMORY UNIVERSITY, priority 2008, dated 2018).

Key:
[1] = target: T1, TrkB extracellular domain (ECD) (Rattus norvegicus, UniProt Q63604); assay: In vitro binding assay with [3H]7,8-dihydroxyflavone, filter, Scatchard plot: TrkB ECD
T1 construct: purified TrkB extracellular domain (ECD) and intracellular domain (ICD) recombinant proteins
Description: To determine whether 7,8-dihydroxyflavone physically and directly binds the TrkB receptor, in vitro binding assays were conducted with purified TrkB extracellular domain (ECD) and intracellular domain (ICD) recombinant proteins. Purified TrkB ECD and ICD (10 μg of each) were incubated with different concentrations of ^3H-7,8-dihydroxyflavone in 1 ml of binding buffer (0.05M Na/K phosphate buffer, pH 7.1, 200 mM NaCl) at 4° C. for 10 minutes. After the incubation, the reaction mixture was loaded on filter paper. The mixture was washed three times with Tris buffer (100 mM Tris, pH 7.1), and the dried filter paper was put into a small vial and subjected to liquid scintillation counter analysis. […] The value of the dissociate constant and the number of sites were obtained from Scatchard plots using the equation r/[L]free=n/Kd−r/Kd, where r is the ratio of the concentration of bound ligand to the total protein concentration and n is the number of binding sites.

TrkB [2] = target: T2, TrkB (Mus musculus, UniProt P15209); assay: TrkB activation in mouse brain after intraperitoneal injection; format: in vivo, mice; conditions: 5 mg/kg intraperitoneally
T2 construct: from tissue; host or cells: mouse brain
Description: To assess whether 7,8-dihydroxyflavone can provoke TrkB activation in the brain, mice were intraperitoneally injected with a dose of 5 mg/kg and analyzed at various time points. […] Further, as shown in FIG. 12 (right panel), the protein and mRNA levels of the neurotrophic receptors were not altered after treatment with 7,8-dihydroxyflavone.

TrkB [3] = target: TrkB (Rattus norvegicus, UniProt Q63604); assay: Immunofluorescent staining of hippocampal neurons with anti-phospho TrkB antibody; format: cell-based; design: endogenous in cells; host or cells: primary hippocampal neurons; conditions: 1 μM, 30 minutes, FIG. 8
Description: Primary hippocampal neurons were seeded on poly-L lysine coated coverslips in a 12-well plate. After 7 days in vitro, the neurons were treated with 100 ng/ml BDNF or variety of flavone compounds (1 μM) for 30 minutes, and then washed with PBS. Cells were fixed with 3% formaldehyde in PBS at room temperature for 10 minutes. The cells were then permeabilized and blocked by 0.4% Triton X-100 and 2% FBS in PBS at room temperature for 15 minutes, washed with PBS three times and treated with anti-MAP2 (1:200) and anti-phospho-TrkB antibodies (1:500). After staining with FITC- or Rhodamine-conjugated secondary antibody, the coverslips were mounted on slides. Fluorescent images were taken by OLYMPUS IX71 fluorescence microscope (Olympus; Center Valley, Pa.).
BDNF binding to TrkB induces its autophosphorylation and, subsequently, activation of downstream kinase pathways including MAPK and PI3/Akt. To explore whether 7,8-dihydroxyflavone triggers TrkB activation, immunofluorescent staining on hippocampal neurons with anti-phospho TrkB antibody was conducted.

[4] = Toxicity after 3-week chronic treatment (organ pathology, complete blood count); format: in vivo, mice
Description: To explore whether 4′-dimethylamino-7,8-dihydroxyflavone and 7,8-dihydroxyflavone have any intolerable toxicity, the major organs from mice treated with both compounds at 5 mg/kg/day for 3 weeks were analyzed.

[5] = tested on: KA-induced apoptosis in hippocampus; assay: Kainic acid-induced apoptosis in mouse hippocampus (TUNEL); format: in vivo, C57BL/6 mice; conditions: 5 mg/kg intraperitoneally followed by 20 mg/kg KA, 5 days, FIG. 19
Source text: Kainic acid (KA) is a potent agonist for the AMPA receptor. Peripheral injections of KA result in recurrent seizures and the subsequent degeneration of select populations of neurons in the hippocampus (Schauwecker and Steward, Proc. Natl. Acad. Sci. USA, 94:4103-8, 1997). KA induces neuronal cell death in a caspase-dependent and independent manners (Faherty et al., Brain Res. Mol. Brain. Res., 70:159-63, 1999; Glassford et al., Neurol. Res., 24:796-800, 2002; Liu et al., Mol. Cell, 29:665-78, 2008). To explore whether 7,8-dihydroxyflavone can block the neurotoxicity initiated by KA, C57BL/6 mice aged 60 days were intraperitoneally injected with either a single dose of 20% DMSO in saline, 20 mg/kg KA (Sigma), or 5 mg/kg of 7,8-dihydroxyflavone followed by 20 mg/kg of KA. In 5 days, the mice were anesthetized, perfused with 4% paraformaldehyde in 0.1M phosphate buffered saline, and the brains were removed, post-fixed overnight, and processed for paraffin embedding. Serial sections of the brain were cut to a thickness of 5 μm and mounted on slides (Superfrost-plus, Fisher; Pittsburgh, Pa.).

[6] = tested on: KA-induced neuronal apoptosis; assay: Kainic acid time course assay, oral TrkB agonists (caspase-3 immunoblot of brain lysates); format: in vivo, C57BL/6J mice; conditions: 1 mg/kg orally, KA 20 mg/kg i.p., FIG. 30 right
Description: Male C57BL/6 mice age 60 days were orally injected with a single dose of 4′-DMA-7,8-DHF or 7,8-DHF (1 mg/kg each). KA (20 mg/kg) was i.p. injected. Animals were continually monitored for 2 hours for the onset of seizure activity. At 0, 4 and 8 hours following TrkB agonist treatment, the animals were sacrificed and the brain lysates were analyzed by immunoblotting with p-TrkB-Y817, active caspase-3 and total TrkB antibodies.
To investigate whether these compounds exert any neuroprotective effects in animals, a time course assay was conducted.

TrkB [7] = target: T2, TrkB; assay: Trk activation in cortical neurons from wild-type and TrkB-null pups: TrkB; format: cell-based, mice; conditions: wild-type but not TrkB-null neurons, FIG. 21
Description: To determine whether 7,8-dihydroxyflavone can selectively activate TrkB receptor and prevent neuronal cell death, cortical neurons were prepared from homozygous pups of TrkB+/−mice, which were mated to the same genotype. […] Glutamate nonselectively elicited weak TrkA phosphorylation in both wild-type and TrkB-null neurons (FIG. 21, row 3).

hippocampal neurons = assay: Glutamate-triggered apoptosis in hippocampal neurons; format: cell-based; conditions: pretreated 30 minutes, 50 μM glutamate for 16 hours, compared with BDNF, FIG. 6
Description: To examine whether these compounds could promote neuronal survival, hippocampal neurons were prepared and the cultures were pretreated with various flavone derivatives for 30 minutes, followed by treatment with 50 μM glutamate for 16 hours.

TrkB [8] = target: T2, TrkB; assay: Immunoblotting of brain lysates from forced swim test mice: TrkB; format: in vivo; conditions: 5 mg/kg, 21 days oral, anti-p-TrkB 817, FIG. 35
Description: To explore whether 4′-DMA-7,8-DHF and 7,8-DHF have any antidepressant effect, a forced swim test (6 minutes, immobility recorded in the last 4 minutes) was conducted after chronic treatment of male C57BL/6J mice (8 mice/group) for 21 days via oral injection.

T2 sequence (P15209 32-821): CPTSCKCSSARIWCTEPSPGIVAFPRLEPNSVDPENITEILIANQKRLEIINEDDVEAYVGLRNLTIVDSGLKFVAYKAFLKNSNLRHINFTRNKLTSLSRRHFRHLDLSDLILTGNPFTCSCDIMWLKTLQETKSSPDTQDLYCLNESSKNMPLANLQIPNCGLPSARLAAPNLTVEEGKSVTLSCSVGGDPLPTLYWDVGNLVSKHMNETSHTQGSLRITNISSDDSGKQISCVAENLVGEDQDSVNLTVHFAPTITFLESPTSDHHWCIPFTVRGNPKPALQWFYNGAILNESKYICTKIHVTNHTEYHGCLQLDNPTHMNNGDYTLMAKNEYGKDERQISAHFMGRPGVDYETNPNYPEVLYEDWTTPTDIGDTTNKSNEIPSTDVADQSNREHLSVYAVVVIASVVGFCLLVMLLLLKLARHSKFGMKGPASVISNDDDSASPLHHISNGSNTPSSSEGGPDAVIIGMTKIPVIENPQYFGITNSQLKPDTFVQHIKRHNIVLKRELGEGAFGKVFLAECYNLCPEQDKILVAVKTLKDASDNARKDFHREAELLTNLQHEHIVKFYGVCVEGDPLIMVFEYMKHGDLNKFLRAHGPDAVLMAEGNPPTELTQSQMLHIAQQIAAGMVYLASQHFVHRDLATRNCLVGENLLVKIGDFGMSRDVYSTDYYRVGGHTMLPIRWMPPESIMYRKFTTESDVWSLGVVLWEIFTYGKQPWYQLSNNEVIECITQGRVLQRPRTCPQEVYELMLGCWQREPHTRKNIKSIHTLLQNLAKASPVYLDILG
T1 sequence (Q63604 32-429 limits assumed): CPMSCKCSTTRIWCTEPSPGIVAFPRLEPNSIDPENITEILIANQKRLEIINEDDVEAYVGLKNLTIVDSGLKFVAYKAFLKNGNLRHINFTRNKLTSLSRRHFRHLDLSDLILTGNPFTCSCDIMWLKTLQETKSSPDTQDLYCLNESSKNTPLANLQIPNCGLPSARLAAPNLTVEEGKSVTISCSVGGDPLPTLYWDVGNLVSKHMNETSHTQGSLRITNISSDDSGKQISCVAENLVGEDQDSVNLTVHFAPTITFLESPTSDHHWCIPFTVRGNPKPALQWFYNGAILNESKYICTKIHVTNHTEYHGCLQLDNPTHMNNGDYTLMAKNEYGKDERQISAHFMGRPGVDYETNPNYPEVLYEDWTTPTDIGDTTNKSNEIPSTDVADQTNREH
Chain of TrkB (Rattus norvegicus, UniProt Q63604) (Q63604 32-821): as the sequence (P15209 32-821) above, with T3M, S9T, A10T, V32I, R63K, S84G, M153T, L185I, S394T, S770N counted along it

Question: Which Kd ([1]; Scatchard plot, 4° C., 10 minutes, FIG. 16, read-out: binding constant Kd) does the source give for `O=c1cc(-c2ccccc2)oc2c(O)c(O)ccc12` [7,8-dihydroxyflavone] here?
Answer: 320 nM

Question: What about the “binding to TrkB ECD” value ([1]; gradual increments of [3H]-7,8-dihydroxyflavone) of the same compound?
Answer: progressively bound TrkB ECD

Question: What about the “TrkB phosphorylation in the brain” value (TrkB [2]; 2 hours after injection, FIG. 12) of the same compound?
Answer: selectively phosphorylated

Question: What about the “protein and mRNA levels of the neurotrophic receptors” value (TrkB [2]; FIG. 12 right) of the same compound?
Answer: not altered

Question: And the “TrkB phosphorylation in the hippocampus (immunofluorescent staining)” value (TrkB [2]; FIG. 13)?
Answer: substantial TrkB phosphorylation

Question: What about the “TrkB tyrosine phosphorylation (immunofluorescence)” value (TrkB [3]) of the same compound?
Answer: provoked TrkB tyrosine phosphorylation similar to BDNF

Question: And the “toxicity to the mice” value ([4]; 5 mg/kg/day dose for 3-week chronic treatment)?
Answer: neither compound was toxic

Question: What about the “complete blood count (CBC) versus control saline-treated mice” value ([4]; mouse, in vivo) of the same compound?
Answer: no significant difference

Question: What about the “KA-induced apoptosis in hippocampus” value [5] of the same compound?
Answer: decreased KA-induced apoptosis

Question: And the “KA-induced caspase-3 activation at 4 h” value [6]?
Answer: reduced

Question: And the “active caspase-3 at 8 h” value [6]?
Answer: slightly increased

Question: What about the “TrkB activation in wild-type neurons” value (TrkB [7]) of the same compound?
Answer: specifically activates TrkB

Question: What about the “protection of hippocampal neurons from glutamate-induced apoptosis” value (hippocampal neurons) of the same compound?
Answer: more protective effect on the neurons than did the positive control BDNF

Question: And the “TrkB activation in mouse brain” value (TrkB [8])?
Answer: provoke TrkB
